# Assay results published in US12642805B2, “Use of oxygenated cholesterol sulfates for treating at least one of insulin resistance, diabetes, and prediabetes” (Medicis Pharmaceutical Corporation, priority 2020, dated 2026).
# Read-outs that look alike come from different tables or passages of the source.
# Tests used:
# [1] = metabolite profiling of plasma and feces after oral dose; format: in vivo, rat; settings: rats 75 mg/kg oral
# Description: Radiolabeled components in plasma and feces extracts were profiled and identified using radio-high performance liquid chromatography (HPLC) and high performance liquid chromatography/mass spectrometry (HPLC/MS) methods.
# [2] = Sprague Dawley, rat, in vivo, iv, 10 mg/kg
# Protocol: (§1) Samples were profiled using high performance liquid chromatography with radiodetection and metabolic characterization was performed using mass spectrometry and tandem mass spectrometry analysis.
# [3] = tested on: DNMT1/3a/3b and 9 other epigenetic enzymes; assay: epigenetic enzyme activity panel; format: biochemical
# Description: The major epigenetic regulation includes DNA and histone methylation, demethylation, acetylation, and deacetylation. The enzymes involved in the process are DNA and histone methyltransferases/demethylases, and acetyltransferases/deacetylases.
# [4] = single oral dose pharmacokinetic study in healthy and NASH subjects; format: in vivo, human; settings: for AUC(0-t) / AUC(0-inf) / Cmax / half-life / Tmax / Vd/F: human, plasma, po
# Protocol: The present Example was a randomized, dose ranging, single dose safety and pharmacokinetic study of 25HC3S administered to subjects with NASH and control healthy subjects. […] For each cohort, 10 subjects with NASH were enrolled which were further classified into cirrhotic and non-cirrhotic. Each subject received only one dose of study treatment. The second cohort was dosed after a review of safety and tolerability data from Cohort 1.
# [5] = metabolite profiling of plasma, urine, feces after intravenous dose; settings: rats 10 mg/kg intravenous 25HC3S
# Protocol: as §1
# [6] = 50 mg single oral dose, Healthy
# [7] = 200 mg single oral dose, Healthy
compound,measurement,setting,value
"C[C@H](CCCC(C)(C)O)[C@H]1CC[C@H]2[C@@H]3CC=C4C[C@@H](O)CC[C@]4(C)[C@H]3CC[C@]12C [25HC, 25-Hydroxycholesterol, reference compound]",relative observed intensity (ROI) in plasma,[1]; 2 hour post-dose,37%
same,% of total dose in feces,[1]; pools 0 to 168 hours,1.9%
same,"detection in plasma, urine, or feces samples",[2],Neither desmosterol sulfate nor 25-hydroxycholesterol was detected
"C[C@@H](CO)CCC[C@@H](C)[C@H]1CC[C@H]2[C@@H]3CC=C4C[C@@H](O)CC[C@]4(C)[C@H]3CC[C@]12C [27HC, 27-Hydroxycholesterol]",effect on enzymatic activities,[3],no effect on other enzymes
"CC(C)CCC[C@@H](C)[C@H]1CC[C@H]2[C@@H]3CC=C4C[C@@H](OS(=O)(=O)O)CC[C@]4(C)[C@H]3CC[C@]12C [Xol3S, Cholesterol 3-Sulfate]",effect on enzymatic activities,[3],did not significantly affect enzymatic activities
"C[C@H](CCCC(C)(C)O)[C@H]1CC[C@H]2[C@@H]3CC=C4C[C@@H](OS(=O)(=O)[O-])CC[C@]4(C)[C@H]3CC[C@]12C.[Na+] [25HC3S sodium, 25-hydroxycholesterol-3-sulfate sodium]","CL/F, Geometric Mean",[4]; [6],118.11 L/h
same,"CL/F, Mean",[4]; [6],122.35 L/h
same,"CL/F, Geometric Mean","[4]; 50 mg single oral dose, NASH",82.19 L/h
same,"CL/F, Mean","[4]; 50 mg single oral dose, NASH",85.29 L/h
same,"CL/F, Geometric Mean",[4]; [7],169.32 L/h
same,"CL/F, Mean",[4]; [7],171.25 L/h
same,"CL/F, Geometric Mean","[4]; 200 mg single oral dose, NASH",141.66 L/h
same,"CL/F, Mean","[4]; 200 mg single oral dose, NASH",143.19 L/h
same,AUC(0-t),"[4]; 50 mg, 50 mg single oral dose, Healthy, read-out: AUC0-12, Geometric Mean",497 ng·h/mL
same,AUC(0-t),"[4]; 50 mg, 50 mg single oral dose, Healthy, read-out: AUC0-12, Mean",528 ng·h/mL
same,AUC(0-t),"[4]; 50 mg, 50 mg single oral dose, Healthy, read-out: AUC0-last, Geometric Mean",450 ng·h/mL
same,AUC(0-t),"[4]; 50 mg, 50 mg single oral dose, Healthy, read-out: AUC0-last, Mean",477 ng·h/mL
same,AUC(0-inf),"[4]; 50 mg, 50 mg single oral dose, Healthy, read-out: AUCinf, Geometric Mean",423 ng·h/mL
same,AUC(0-inf),"[4]; 50 mg, 50 mg single oral dose, Healthy, read-out: AUCinf, Mean",439 ng·h/mL
same,Cmax,"[4]; 50 mg, 50 mg single oral dose, Healthy, read-out: Cmax, Geometric Mean",90.9 ng/mL
same,Cmax,"[4]; 50 mg, 50 mg single oral dose, Healthy, read-out: Cmax, Mean",94 ng/mL
same,half-life,"[4]; 50 mg, 50 mg single oral dose, Healthy, read-out: T1/2, Geometric Mean (converted)",1.89 h
same,half-life,"[4]; 50 mg, 50 mg single oral dose, Healthy, read-out: T1/2, Mean (converted)",1.91 h
same,Tmax,"[4]; 50 mg, 50 mg single oral dose, Healthy, read-out: Tmax, Geometric Mean",2.83 h
same,Tmax,"[4]; 50 mg, 50 mg single oral dose, Healthy, read-out: Tmax, Mean",3.01 h
same,Vd/F,"[4]; 50 mg, 50 mg single oral dose, Healthy, read-out: Vz/F, Geometric Mean",322 L
same,Vd/F,"[4]; 50 mg, 50 mg single oral dose, Healthy, read-out: Vz/F, Mean",325 L
same,AUC(0-t),"[4]; 50 mg, 50 mg single oral dose, NASH, read-out: AUC0-12, Geometric Mean",598 ng·h/mL
same,AUC(0-t),"[4]; 50 mg, 50 mg single oral dose, NASH, read-out: AUC0-12, Mean",623 ng·h/mL
same,AUC(0-t),"[4]; 50 mg, 50 mg single oral dose, NASH, read-out: AUC0-last, Geometric Mean",476 ng·h/mL
same,AUC(0-t),"[4]; 50 mg, 50 mg single oral dose, NASH, read-out: AUC0-last, Mean",513 ng·h/mL
same,AUC(0-inf),"[4]; 50 mg, 50 mg single oral dose, NASH, read-out: AUCinf, Geometric Mean",608 ng·h/mL
same,AUC(0-inf),"[4]; 50 mg, 50 mg single oral dose, NASH, read-out: AUCinf, Mean",636 ng·h/mL
same,Cmax,"[4]; 50 mg, 50 mg single oral dose, NASH, read-out: Cmax, Geometric Mean",108 ng/mL
same,Cmax,"[4]; 50 mg, 50 mg single oral dose, NASH, read-out: Cmax, Mean",113 ng/mL
same,half-life,"[4]; 50 mg, 50 mg single oral dose, NASH, read-out: T1/2, Geometric Mean (converted)",1.67 h
same,half-life,"[4]; 50 mg, 50 mg single oral dose, NASH, read-out: T1/2, Mean (converted)",1.67 h
same,Tmax,"[4]; 50 mg, 50 mg single oral dose, NASH, read-out: Tmax, Geometric Mean",2.31 h
same,Tmax,"[4]; 50 mg, 50 mg single oral dose, NASH, read-out: Tmax, Mean",2.41 h
same,Vd/F,"[4]; 50 mg, 50 mg single oral dose, NASH, read-out: Vz/F, Geometric Mean",198 L
same,Vd/F,"[4]; 50 mg, 50 mg single oral dose, NASH, read-out: Vz/F, Mean",203 L
same,AUC(0-t),"[4]; 200 mg, 200 mg single oral dose, Healthy, read-out: AUC0-12, Geometric Mean",1160 ng·h/mL
same,AUC(0-t),"[4]; 200 mg, 200 mg single oral dose, Healthy, read-out: AUC0-12, Mean",1180 ng·h/mL
same,AUC(0-t),"[4]; 200 mg, 200 mg single oral dose, Healthy, read-out: AUC0-last, Geometric Mean",1170 ng·h/mL
same,AUC(0-t),"[4]; 200 mg, 200 mg single oral dose, Healthy, read-out: AUC0-last, Mean",1190 ng·h/mL
same,AUC(0-inf),"[4]; 200 mg, 200 mg single oral dose, Healthy, read-out: AUCinf, Geometric Mean",1180 ng·h/mL
same,AUC(0-inf),"[4]; 200 mg, 200 mg single oral dose, Healthy, read-out: AUCinf, Mean",1190 ng·h/mL
same,Cmax,"[4]; 200 mg, 200 mg single oral dose, Healthy, read-out: Cmax, Geometric Mean",256 ng/mL
same,Cmax,"[4]; 200 mg, 200 mg single oral dose, Healthy, read-out: Cmax, Mean",260 ng/mL
same,half-life,"[4]; 200 mg, 200 mg single oral dose, Healthy, read-out: T1/2, Geometric Mean (converted)",1.72 h
same,half-life,"[4]; 200 mg, 200 mg single oral dose, Healthy, read-out: T1/2, Mean (converted)",1.75 h
same,Tmax,"[4]; 200 mg, 200 mg single oral dose, Healthy, read-out: Tmax, Geometric Mean",2.53 h
same,Tmax,"[4]; 200 mg, 200 mg single oral dose, Healthy, read-out: Tmax, Mean",2.67 h
same,Vd/F,"[4]; 200 mg, 200 mg single oral dose, Healthy, read-out: Vz/F, Geometric Mean",420 L
same,Vd/F,"[4]; 200 mg, 200 mg single oral dose, Healthy, read-out: Vz/F, Mean",434 L
same,AUC(0-t),"[4]; 200 mg, 200 mg single oral dose, NASH, read-out: AUC0-12, Geometric Mean",1500 ng·h/mL
same,AUC(0-t),"[4]; 200 mg, 200 mg single oral dose, NASH, read-out: AUC0-12, Mean",1540 ng·h/mL
same,AUC(0-t),"[4]; 200 mg, 200 mg single oral dose, NASH, read-out: AUC0-last, Geometric Mean",1540 ng·h/mL
same,AUC(0-t),"[4]; 200 mg, 200 mg single oral dose, NASH, read-out: AUC0-last, Mean",1580 ng·h/mL
same,AUC(0-inf),"[4]; 200 mg, 200 mg single oral dose, NASH, read-out: AUCinf, Geometric Mean",1410 ng·h/mL
same,AUC(0-inf),"[4]; 200 mg, 200 mg single oral dose, NASH, read-out: AUCinf, Mean",1430 ng·h/mL
same,Cmax,"[4]; 200 mg, 200 mg single oral dose, NASH, read-out: Cmax, Geometric Mean",319 ng/mL
same,Cmax,"[4]; 200 mg, 200 mg single oral dose, NASH, read-out: Cmax, Mean",333 ng/mL
same,half-life,"[4]; 200 mg, 200 mg single oral dose, NASH, read-out: T1/2, Geometric Mean (converted)",2.2 h
same,half-life,"[4]; 200 mg, 200 mg single oral dose, NASH, read-out: T1/2, Mean (converted)",2.51 h
same,Tmax,"[4]; 200 mg, 200 mg single oral dose, NASH, read-out: Tmax, Geometric Mean",2.65 h
same,Tmax,"[4]; 200 mg, 200 mg single oral dose, NASH, read-out: Tmax, Mean",2.91 h
same,Vd/F,"[4]; 200 mg, 200 mg single oral dose, NASH, read-out: Vz/F, Geometric Mean",449 L
same,Vd/F,"[4]; 200 mg, 200 mg single oral dose, NASH, read-out: Vz/F, Mean",540 L
"CC(C)CCC[C@@H](C)[C@H]1CC[C@H]2[C@@H]3CC=C4C[C@@H](O)CC[C@]4(C)[C@H]3CC[C@]12C [Xol, Cholesterol]",effect on enzymatic activities,[3],did not significantly affect enzymatic activities
desmosterol sulfate,"detection in plasma, urine, or feces samples",[5],Neither desmosterol sulfate nor 25-hydroxycholesterol was detected
